Patent US4044134A, “Fused pyrimidin-4(3H)-ones as antiallergy agents” (Pfizer Inc., priority 1976, dated 1977)
Where two headings read alike, the source gives them in different places.

Assays:
[1] = tested on: passive cutaneous anaphylaxis (PCA) reaction; experiment: passive cutaneous anaphylaxis (PCA) test, i.v. or oral administration; type: in vivo, male Charles River Wistar rats
Protocol: In the PCA test, normal animals are injected intradermally (i.d.) with antibodies contained in serum obtained from actively sensitized animals. The animals are then challenged intravenously with antigen mixed with a dye such as Evans' Blue. The increased capillary-permeability caused by the antigen-antibody reaction causes the dye to leak from the site of the antibody injection. The test animals are then asphyxiated and the intensity of the reaction determined by measuring the diameter and intensity of the blue coloration on the inner surface of the animals skin. […] The ability of agents to interfere with PCA reactions is measured in male Charles River Wistar rats, 170-210 g. […] Hyperimmune antisera to hen egg albumin is prepared according to Orange, et al., J. Exptl. […] Forty-eight hours prior to antigen challenge the reaginic antisera is injected intradermally (i.d.) into the shaved skin of a normal rat's back; 5 hours before challenge the hyperimmune antisera is similarly injected; 5 hours later, at a third site, 60 mcg. histamine dihydrochloride is injected i.d. as a check for antihistaminic and unspecific types of blockage; the compounds of the instant invention or saline are then administered i.v. and immediately followed by 2.5 mg. Evan's blue dye and 5 mg. egg albumin in saline. In the case of oral administration Evan's blue dye and egg albumen are given five minutes after administration of the drug. Thirty minutes later the animals are asphyxiated using chloroform and the skin of the back removed and reversed for observation. A score is assigned each injection site equal to the product of the diameter of the site in mm. and a grade of 0.1, 0.5, 1, 2, 3 or 4 proportional to intensity of dye coloration. The scores for a given injection site are summed for each group of 8 animals and compared to the saline treated controls. The difference is expressed as percent blockade due to the compound employed. […] Disodium cromoglycate, a commerial antiallergy agent, is included for comparison. [drawing 3]

PCA reaction = PCA reaction test after aerosol administration (nebulizer); type: in vivo, rats
[2] = hypotension and bradycardia in dogs; type: in vivo
[3] = intravenous toxicity in mice
bronchi = settings: in vivo; cited from earlier work
bronchial asthma = settings: in vivo; cited from earlier work
[4] = Rattus norvegicus, iv, I.V., read-out: degree (%) of protection, PCA test
[5] = Rattus norvegicus, iv, I.V., 0.03 mg/kg, read-out: degree (%) of protection, PCA test
[6] = Rattus norvegicus, Oral, read-out: degree (%) of protection, PCA test

In the case of `CCOC(=O)c1nc2nc3cc(OC)c(OC)cc3cc2c(=O)[nH]1` [COOC2 H5/H/H/OCH3/OCH3/H, Ethyl 7,8-dimethoxypyrimido[4,5-b]quinolin-4(3H)-one-2-carboxylate], the inhibition in vivo at 0.003 mg/kg ([1]; Rattus norvegicus, iv, I.V., 0.003 mg/kg, read-out: degree (%) of protection, PCA test) is reported as 36%, the inhibition in vivo at 0.01 mg/kg [1, 4] is reported as 70% and the inhibition in vivo at 0.03 mg/kg [1, 5] is reported as 75%. The inhibition in vivo at 0.1 mg/kg [1, 4] was 90%, the inhibition in vivo at 0.3 mg/kg [1, 4] was 90% and the inhibition in vivo at 1 mg/kg [1, 4] was 100%. For the same compound, the minimal effective dose ([1]; Rattus norvegicus, iv, read-out: intravenously active at a level as low as) was 0.003 mg/kg, the inhibition in vivo at 0.03 mg/kg ([1]; Rattus norvegicus, Oral, 0.03 mg/kg (so in the source), read-out: degree (%) of protection, PCA test) was 30% and the inhibition in vivo at 1 mg/kg [1, 6] was 51%. For the same compound, the inhibition in vivo at 3 mg/kg [1, 6] was 75%, the inhibition in vivo at 10 mg/kg [1, 6] was 80% and the “routes of administration by which active” value ([1]; rat, in vivo) was “active via the oral, intravenous, intraperitoneal and inhalation routes of administration”. The “concentration of solutions giving concentration related responses by aerosol” value (PCA reaction) was 0.3 to 30 mg/mL, the hypotension and bradycardia [2] was “marked but transient hypotension and bradycardia” and the “intravenous dose that did not cause death in mice” value ([3]; intravenous, mice) was 1000 mg/kg. The “toxicity” value ([3]; mouse, in vivo) was “relatively free of toxicity”.

For `CNC[C@H](O)c1ccc(O)c(O)c1` [epinephrine], the “bronchodilator activity” value (bronchi) is given as “bronchodilator effects”.

Work on `O=C(O)c1cc(=O)c2c(OCC(O)COc3cccc4oc(C(=O)O)cc(=O)c34)cccc2o1` [Disodium chromoglycate, 1,3-bis-(2-carboxychromon-5-yloxy)-2-hydroxypropane, reference compound] yielded an inhibition in vivo at 0.1 mg/kg [1, 4] of 19%, an inhibition in vivo at 0.3 mg/kg [1, 4] of 29% and an inhibition in vivo at 1 mg/kg [1, 4] of 56%. It also gave an inhibition in vivo at 3 mg/kg [1, 4] of 78%, an inhibition in vivo at 10 mg/kg [1, 4] of 89% and an inhibition in vivo at 30 mg/kg ([1]; Rattus norvegicus, iv, I.V., 30 mg/kg, read-out: degree (%) of protection, PCA test) of 99%. The inhibition in vivo at 100 mg/kg [1, 4] was 100%, the inhibition in vivo at 100 mg/kg [1, 6] was 0% and the “bronchodilator activity” value (bronchi) was “not a bronchodilator”. For the same compound, the “efficacy by route of administration” value (bronchial asthma) was “lack of oral efficacy”.

In the case of `Cn1c(=O)c2[nH]cnc2n(C)c1=O` [theophylline], the “bronchodilator activity” value (bronchi) is listed as “generally less potent than the sympathomimetic amines such as isoproterenol and solbutamol, and are ineffective in aerosol administration”.

For `CC(C)(C)NCC(O)c1ccc(O)c(CO)c1` (stereo not shown) [solbutamol], the “bronchodilator activity” value (bronchi) is listed as “potent bronchodilator of prolonged duration, and active via both oral and aerosol administration”.

In the case of `O=c1[nH]cnc2cc3ccccc3cc12` [Benzo[g]quinazolin-4(3H)-one, reference compound], the inhibition in vivo at 3 mg/kg [1, 4] is given as 31% and the “bronchodilator activity” value (bronchi) is given as “active as a bronchodilator”.

For `CC(C)NCC(O)c1ccc(O)c(O)c1` (stereo not shown) [isoproterenol], the “bronchodilator activity” value (bronchi) is given as “potent aerosol bronchodilator”.

In the case of `CN[C@@H](C)[C@H](O)c1ccccc1` [ephedrine], the “bronchodilator activity” value (bronchi) is listed as “orally efficacious bronchodilator”.

`CCOC(=O)c1nc2nc3ccc(OCc4ccccc4)cc3cc2c(=O)[nH]1` [COOC2 H5/H/H/OC7 H7/H/H, ethyl 7-benzyloxypyrimido-[4,5-b]quinolin-4(3H) one-2-carboxylate] showed an inhibition in vivo at 0.3 mg/kg [1, 4] of 23%, an inhibition in vivo at 3 mg/kg [1, 4] of 85% and an inhibition in vivo at 3 mg/kg [1, 6] of 3%. The inhibition in vivo at 10 mg/kg [1, 6] was 60%.

`CCOC(=O)c1nc2nc3ccc(Cl)cc3cc2c(=O)[nH]1` [COOC2 H5/H/H/Cl/H/H, Ethyl 7-Chloropyrimido[4,5-b]quinolin-4(3H)-one-2-carboxylate] gave an inhibition in vivo at 0.03 mg/kg [1, 5] of 0% and an inhibition in vivo at 1 mg/kg [1, 4] of 70%.

With `COc1cc2cc3c(=O)[nH]c(C(=O)O)nc3nc2cc1OC` [COONa/H/H/OCH3/OCH3/H] the inhibition in vivo at 0.01 mg/kg [1, 4] was 71%, the inhibition in vivo at 0.03 mg/kg [1, 5] was 96% and the inhibition in vivo at 0.1 mg/kg [1, 4] was 100%. It also gave an inhibition in vivo at 10 mg/kg [1, 6] of 17%.
